Patent publication US7544814B2, “[3.2.0] Heterocyclic compounds and methods of using the same” (Nereus Pharmaceuticals, Inc., priority 2004, dated 2009)
“And” between values parts separate entries of the source, which are not always exact repeats. Equal entries are not always repeated. Where two headings read alike, the source gives them in different places.

How the values were obtained:
OVCAR-3 = test: Cell growth inhibition (resazurin), OVCAR-3
B16-F10 [1] = test system: B16-F10
B16-F10 [2] = test: Cell growth inhibition (resazurin), B16-F10; conditions: 48 hours drug exposure, mean ± SD where n≥3
HT-29 = test: Cell growth inhibition (resazurin), HT-29; conditions: for cytotoxicity against HT-29, in words: from EC50 values
NF-κB = test: NF-κB-mediated luciferase reporter gene assay, HEK293 NF-κB/Luc cells, TNF-α stimulation; format: cell-based, human; conditions: for EC50: 1 hr pretreatment, TNF-α 6 hr; for effect on luciferase activity upon TNF-α stimulation, in words: pretreatment of NF-κB/Luc 293 cells
In short: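 Cells seeded at 1.5×10^4/well in phenol-red free DMEM, pretreated 1 h with 8-point half-log compound dilutions (DMSO stocks), then stimulated with TNF-α (10 μl of 50 ng/ml solution) for 6 h. Luciferase read as RLU after 10 min with Steady Lite reagent at room temperature.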

NCI-H292 = test: Cell growth inhibition (resazurin), NCI-H292; conditions: from EC50 values
HL-60/MX2 = test: Cell growth inhibition (resazurin), multidrug resistant HL-60/MX2; conditions: from EC50 values
Experimental: Concentrations ranging from 6.32 μM to 2 nM were tested for II-2 and II-4.
HL-60/MX2 is a multidrug resistant tumor cell line derived from the human promyelocytic leukemia cell line, HL-60 and expresses reduced topoisomerase II activity. […] Mitoxantrone, the topoisomerase II targeting agent was included as a control.

HL-60 = test: Cell growth inhibition (resazurin), HL-60; format: cell-based, human; conditions: for EC50: Table 4, 48 hours drug exposure; for cytotoxic activity against HL-60, in words: from EC50 values
PC-3 = test: Cell growth inhibition (resazurin), PC-3; format: cell-based, human; conditions: from EC50 values
[3] = target: T1, chymotrypsin-like activity of purified rabbit muscle 20S proteasome (Oryctolagus cuniculus, UniProt G1T4Q9); test: In vitro inhibition of 20S proteasome chymotrypsin-like activity (suc-LLVY-AMC)
T1 sequence (G1T4Q9 1-263): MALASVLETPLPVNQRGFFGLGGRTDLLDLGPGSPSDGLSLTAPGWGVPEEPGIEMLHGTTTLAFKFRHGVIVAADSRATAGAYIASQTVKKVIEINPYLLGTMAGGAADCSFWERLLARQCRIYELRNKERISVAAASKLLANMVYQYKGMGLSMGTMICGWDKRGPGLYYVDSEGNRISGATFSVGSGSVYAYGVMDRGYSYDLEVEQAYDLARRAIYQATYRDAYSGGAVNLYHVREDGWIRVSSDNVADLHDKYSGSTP

U266 [4] = test: Cell growth inhibition (resazurin), U266; conditions: for EC50: 48 hours drug exposure
U266 [5] = test system: U266
[6] = target: T2, trypsin-like activity of purified rabbit muscle 20S proteasome (Oryctolagus cuniculus, UniProt G1SWK8); test: In vitro inhibition of 20S proteasome trypsin-like activity (Boc-LRR-AMC)
T2 sequence (G1SWK8 1-271): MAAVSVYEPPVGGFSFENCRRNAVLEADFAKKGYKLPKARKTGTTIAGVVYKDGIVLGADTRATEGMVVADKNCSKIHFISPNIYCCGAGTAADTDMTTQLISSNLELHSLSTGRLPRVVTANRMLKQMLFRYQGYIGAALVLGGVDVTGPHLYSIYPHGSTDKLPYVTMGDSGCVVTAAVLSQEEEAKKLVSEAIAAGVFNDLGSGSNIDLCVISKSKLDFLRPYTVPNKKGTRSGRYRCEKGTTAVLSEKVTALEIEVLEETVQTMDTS

[7] = target: T3, caspase-like activity of purified rabbit muscle 20S proteasome (Oryctolagus cuniculus, UniProt A0A5F9DQW2); test: In vitro inhibition of 20S proteasome caspase-like activity (Z-LLE-AMC)
T3 sequence (A0A5F9DQW2 1-212): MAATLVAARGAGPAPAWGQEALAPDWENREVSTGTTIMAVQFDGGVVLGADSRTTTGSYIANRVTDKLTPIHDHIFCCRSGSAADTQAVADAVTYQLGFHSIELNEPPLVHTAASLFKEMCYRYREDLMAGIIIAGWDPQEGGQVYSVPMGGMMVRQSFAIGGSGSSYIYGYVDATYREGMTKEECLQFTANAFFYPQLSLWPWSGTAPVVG

MES-SA/Dx5 = test: Cell growth inhibition (resazurin), multidrug resistant MES-SA/Dx5; format: cell-based, human; conditions: from EC50 values
MES-SA = test: Cell growth inhibition (resazurin), MES-SA; format: cell-based, human; conditions: for cytotoxic activity against MES-SA, in words: from EC50 values
RPMI 8226 = test: Cell growth inhibition (resazurin), RPMI 8226; conditions: for EC50: 48 hours drug exposure; for cytotoxicity against RPMI 8226, in words: from EC50 values
MDA-MB-231 = test: Cell growth inhibition (resazurin), MDA-MB-231; conditions: for EC50: Homo sapiens, MDA-MB-231, 48 h, read-out: EC50 against MDA-MB-231; for cytotoxicity against MDA-MB-231, in words: from EC50 values
[8] = target: T2, trypsin-like activity of purified rabbit muscle 20S proteasome; test: biochemical
[9] = EC50 values, chymotrypsin-like activity
[10] = Homo sapiens, RPMI-8226, 48 h, read-out: RPMI 8226 EC50, Table 2, mean ± SD where n≥3
[11] = read-out: RPMI 8226 EC50, Table 2, mean ± SD where n≥3

Row | Structure (SMILES) | cytotoxicity against B16-F10, in words (B16-F10 [1]) | cytotoxicity against HT-29, in words (HT-29) | effect on luciferase activity upon TNF-α stimulation, in words (NF-κB) | cytotoxicity against NCI-H292, in words (NCI-H292) | cytotoxic activity against HL-60/MX2, in words (HL-60/MX2) | EC50 (HL-60; Homo sapiens, HL-60, 48 h) [µM] | cytotoxic activity against HL-60, in words (HL-60) | cytotoxicity against PC-3, in words (PC-3) | EC50 [3, 9] [nM] | EC50 (U266 [4]; read-out: U266 EC50, Table 2) [µM] | cytotoxic activity against MES-SA, in words (MES-SA) | EC50 (RPMI 8226; [10]) [µM] | cytotoxicity against RPMI 8226, in words (RPMI 8226) | EC50 (RPMI 8226; [11]) [µM] | EC50 (MDA-MB-231) [µM] | cytotoxicity against MDA-MB-231, in words (MDA-MB-231) | also measured
1 | C[C@@]12OC(=O)[C@]1([C@@H](O)C1CCCCC1)NC(=O)[C@@H]2CCCl [Formula II-2] | cytotoxic | cytotoxic | dose-dependent decrease | cytotoxic | retained cytotoxic activity | 0.237 | retained cytotoxic activity | cytotoxic | 13 to 88 | 0.032 | cytotoxic activity | 0.049 | cytotoxic | 0.045 | 0.121 ± 0.023 | cytotoxic | cytotoxicity against OVCAR-3, in words (OVCAR-3; from EC50 values): cytotoxic; EC50 (B16-F10 [2]; Mus musculus, B16-F10, 48 h, read-out: EC50 against B16-F10, Table 1): 0.194 µM; EC50 (B16-F10 [2]; read-out: EC50 against B16-F10, Table 1): 0.18 µM; EC50 (HT-29; Homo sapiens, HT-29, 48 h, read-out: EC50 against HT-29): 0.129 ± 0.021 µM; EC50 (NF-κB; Homo sapiens, HEK293, read-out: EC50, NF-κB-mediated luciferase reporter gene assay, Table 5, values in nM): 71 ± 20 nM; EC50 (HL-60): 0.176 µM; EC50 ([3]; read-out: EC50 Chymotrypsin-like): 19 nM; EC50 (U266 [4]; Homo sapiens, U-266, 48 h, read-out: U266 EC50, Table 2): 0.039 µM; cytotoxicity against U266, in words (U266 [5]): cytotoxic; inhibition of the trypsin-like activity of the 20S proteasome, in words ([6]; under the conditions tested): able to inhibit; EC50 ([7]; EC50 Caspase-like, Table 6, values in μM): 1.3 µM and 1.7 µM; EC50 ([7]; EC50 values, caspase-like activity, range in mixed units, summary of Table 6, range from nM to μM): 0.956 to 8.7 µM; cytotoxic activity against MES-SA/Dx5, in words (MES-SA/Dx5): cytotoxic activity; EC50 (RPMI 8226; Homo sapiens, RPMI-8226, 48 h, read-out: EC50 against RPMI 8226, Table 1): 0.049 µM
2 | C[C@@]12OC(=O)[C@]1([C@@H](O)C1CCCCC1)NC(=O)[C@@H]2CCBr [Formula II-4] | cytotoxic | cytotoxic | dose-dependent decrease | cytotoxic | retained cytotoxic activity | 0.143 | retained cytotoxic activity | cytotoxic | 13 to 88 | 0.034 | cytotoxic activity | 0.057 | cytotoxic | 0.051 | 0.114 ± 0.004 | cytotoxic | EC50 (OVCAR-3; Homo sapiens, OVCAR-3, 48 h, read-out: EC50 against OVCAR-3): > 6.32 µM; EC50 (NF-κB; Homo sapiens, HEK293, Table 5, values printed in nM, read-out: EC50, NF-κB-mediated luciferase reporter gene assay): 67 nM; EC50 (NF-κB; read-out: EC50, NF-κB-mediated luciferase reporter gene assay, Table 5, values in nM): 88 nM; EC50 [8]: 0.107 µM; EC50 ([3]; EC50 Chymotrypsin-like, Table 6, values in nM): 13 nM; cytotoxicity against U266, in words (U266 [4]; from EC50 values): cytotoxic; inhibition of the trypsin-like activity of the 20S proteasome, in words [6]: able to inhibit; EC50 ([6]; read-out: EC50 Trypsin-like): 0.11 µM; EC50 ([7]; EC50 Caspase-like, Table 6, values in nM): 0.85 µM and 0.637 µM; EC50 ([7]; EC50 values, caspase-like activity, summary of Table 6): 0.213 to 0.85 µM; EC50 (MES-SA; Homo sapiens, MES-SA, 48 h, Table 3, 48 hours drug exposure): 0.14 µM
